Reference: patent US20250101436A1, “APTAMERS AND SMALL MOLECULE LIGANDS” (MeiraGTx UK II Limited, priority 2021, published 2025)

Legend:
12C6-1 riboswitch = experiment: Firefly luciferase assay, Luci-12C6-1 riboswitch construct in transfected HEK 293 cells; assay type: cell-based, human; settings: Luci-12C6-1, HEK 293, 50 uM Comp. 004
From the text: Riboswitch construct: Aptamers were synthesized by Integrated DNA Technologies, Inc. The synthesized aptamer sequence, here referred to as aptamer sequence 12C6-1, contains a putative TPP aptamer sequence (AP008955.1/944373-944459; CP030117.1/954080-954166; CP023474.1/977011-977097) with C at 5′ end and a complementary G at 3′ end flanking the putative TPP aptamer sequence: […] […] (SEQ ID NO: 1). Golden Gate cloning strategy (New England Biolabs, NEB) was used to clone the synthesized aptamer sequences into an intron-exon-intron cassette to replace the guanine aptamer in the G17 riboswitch cassette (see SEQ ID NO: 15 recited in WO 2016/126747, which is incorporated herein in its entirety) to generate riboswitch construct Luci-12C6-1.

[1] = tested on: Alishewanella tabrizica thiC aptamer in TPPz riboswitch; experiment: Firefly luciferase assay, TPPz riboswitch construct in HEK 293 cells; assay type: cell-based, human; settings: HEK 293, 50 μM Comp. 004
Description: (§1) First, the E. coli thiM TPP aptamer, the aptamer that was used in Weeks' work in generating the Comp. 004, was tested in TPPm riboswitch construct (SEQ ID No. 87 as described in 62/994,135) for its response to Comp. 004 in inducing gene expression. To evaluate whether this novel TPP aptamer binder could bind a different TPP aptamer, TPP aptamer from Alishewanella tabrizica thiC gene (Microbiol Res. 2017 January; 195:71-80) was tested in TPPz riboswitch construct (SEQ ID No. 86 as described in 62/994,135).

[2] = tested on: E. coli thiM TPP aptamer in TPPm riboswitch; experiment: Firefly luciferase assay, TPPm riboswitch construct in HEK 293 cells; assay type: cell-based, human; settings: HEK 293, 50 μM Comp. 004
Description: as §1

N4-1C11 riboswitch = experiment: Firefly luciferase assay, N4-1C11 riboswitch in HEK 293 cells; assay type: cell-based, human; settings: N4-1C11, 0.1 μM Comp. 004
Description: (§4) Transfection: 3.5×10^4 human embryonic kidney (HEK) 293 cells were plated in a 96-well flat bottom plate the day before transfection. Plasmid DNA (500 ng) was added to a tube or a 96-well U-bottom plate. Separately, TransIT-293 reagent (Mirus; 1.4 L) was added to 50 μL Optimum I media (Life Technologies) and allowed to sit for 5 minutes at room temperature (RT). Then, 50 μL of this diluted transfection reagent was added to the DNA, mixed, and incubated at RT for 20 min. Finally, 7 μL of this solution was added to a well of cells in the 96-well plate. Four hours after transfection, medium containing transfection solution was replaced by medium with either TPP or fursultiamine as aptamer ligands.
(§5) Firefly luciferase assay of cultured cells: Twenty-four hours after media change, plates were removed from the incubator, and equilibrated to RT for several minutes on a lab bench, then aspirated. […] Following a 5 min incubation at RT, luminescence was measured using a Tecan machine with 500 ms read time. The luciferase activity was expressed as mean arbitrary light units (ALU)±S.D., and fold induction was calculated as the quotient of the luciferase activity obtained from cells with TPP or analog compound treatment divided by the luciferase activity obtained from cells without TPP or analog compound treatment.

N5-12E5 riboswitch = experiment: Firefly luciferase assay, N5-12E5 riboswitch in HEK 293 cells; assay type: cell-based, human; settings: N5-12E5, 0.1 μM Comp. 004
Description: as §4, §5

[3] = tested on: mEpo-12G6 (N5-12G6 riboswitch in mEpo gene); experiment: ELISA for mouse erythropoietin, construct mEpo-12G6 in AML12 cells; assay type: cell-based; settings: mEpo-12G6, 1.85 μM Comp. 004
From the text: (§2) Riboswitch constructs: The alternative splicing riboswitch cassette containing aptamers N5-12G6 or N4-1C11 was inserted between nucleotide position 307 and 308 in the mouse erythropoietin cDNA sequence, generating constructs mEpo-12G6 and mEpo-1C11. Expression of the erythropoietin gene was driven by CASI promoter. The intron-exon-intron cassette without aptamer sequence was inserted at the same position in the cDNA of mEpo gene to create construct mEpo-Con1, serving as a control for constitutive target gene expression. N5-12G6 riboswitch cassette was inserted between nucleotide position 424 and 425 in the cDNA of human growth hormone (hGH) gene driven under CMV promoter.
(§3) Enzyme-linked immunosorbent assay (ELISA) for mouse erythropoietin (mEpo): AML-12 cells or C2C12 cells were transfected as described in Example 1 with TransIT-X2 transfection reagent (Mirus Bio). Four hours after transfection, the transfected cells were treated with or without Comp. 004 at the indicated doses. The supernatants from the transfected cells were collected 24 hours after compound treatment and were subjected to ELISA for the detection of mEpo in the supernatant following the manufacturer's instruction (R&D).

[4] = tested on: mEpo-1C11 (N4-1C11 riboswitch in mEpo gene); experiment: ELISA for mouse erythropoietin, construct mEpo-1C11 in AML12 cells; assay type: cell-based; settings: mEpo-1C11, 1.85 μM Comp. 004
From the text: as §2, §3

[5] = tested on: riboswitch regulatable mEpo constructs; experiment: ELISA for mouse erythropoietin, riboswitch regulatable mEpo constructs in C2C12 cells; assay type: cell-based
From the text: as §2, §3

[6] = tested on: hGH-12G6 (N5-12G6 riboswitch in hGH gene); experiment: ELISA for human growth hormone, hGH-12G6 construct in HEK 293 cells; assay type: cell-based; settings: HEK 293, hGH-12G6, 3.1 μM Comp. 004
From the text: as §2
as §3, with “ELISA” for “Enzyme-linked immunosorbent assay (ELISA)”, “human growth hormone (hGH): HEK 293” for “mouse erythropoietin (mEpo): AML-12 cells or C2C12”, “TransIT-293” for “TransIT-X2”, “Comp. 004” for “compound”, “hGH” for “mEpo”, “(R&D Systems).” for “(R&D).”

[7] = tested on: AAV8.mEpo.12G6 mEpo expression; experiment: Serum mouse Epo ELISA in mice injected in the muscle with AAV8.mEpo.12G6, oral Comp. 004; assay type: in vivo; settings: 1×10^11 GC AAV8 in the muscle, 30 mg/kg oral
Description: For regulated mouse erythropoietin (mEpo) study, each female Balb/c mouse was injected in the quadricep muscle with 1.0×10^11, 5×10^10, 1×10^10, or 5×10^9 GC of AAV8 vectors containing riboswitch N5-12G6 regulated mEpo gene (AAV8.mEpo.12G6). 5 weeks post AAV injection, mice were treated with Comp. 004 formulated in 0.5% methylcellulose (MC): 0.25% Tween® 80 in deionized (DI) water via oral gavage. 16 hours post oral dosing, mice were subjected to submandibular blood collection. 10 fold diluted serum was used to measure mouse serum Epo using ELISA (Invitrogen).

[8] = tested on: hematocrit of anemic mice; experiment: Hematocrit in mouse model of chronic kidney disease (CKD)-associated anemia with AAV8.mEpo.12G6; assay type: in vivo; settings: for hematocrit: 300 mg/kg for 15 days and 10 doses
Description: Chronic kidney disease-associated anima: male C57Bl/6 mice were injected intramuscularly with 2.5×10^10 vg or 1.0×10^10 vg of AAV8.mEpo.12G6 per mouse. One week post AAV injection, mice were treated daily with 50 mg/kg adenine (Sigma) via oral gavage for total 28 treatment in 5 weeks. Hematocrit was measured after Adenine treatment and before small molecule inducer treatment and monitored every 7 to 10 days post daily small molecule inducer oral dosing.

[9] = tested on: hPTH-12G6 (N5-12G6 riboswitch in hPTH gene); experiment: ELISA for human PTH, hPTH-12G6 construct in HEK 293 cells; assay type: cell-based; settings: HEK 293, hPTH-12G6
From the text: Riboswitch constructs: Alternative splicing riboswitch cassette containing aptamers N5-12G6 was inserted between nucleotide position 181 and 182 in human parathyroid hormone (hPTH) cDNA sequence, generating constructs hPTH-12G6. Expression of the erythropoietin gene was driven by CASI promoter.
as §3, with “human PTH: HEK 293” for “mouse erythropoietin (mEpo): AML-12 cells or C2C12”, “TransIT-293” for “TransIT-X2”, “Compound” for “Comp.”, “48” for “24”, “human PTH” for “mEpo”, “(Abcam).” for “(R&D).”

[10] = tested on: AAV9.hPTH-12G6 hPTH expression; experiment: hPTH production and serum calcium in mice injected intramuscularly with AAV9.hPTH-12G6, oral Comp. 004; assay type: in vivo; settings: oral 30, 100 or 300 mg/kg for 3 days
Description: AAV2.9 viral particle production: The AAV9 particles used for the transduction of mice comprised a viral genome derived from AAV2 (ITR) and a capsid derived from AAV9. The hPTH-12G6 was cloned into AAV plasmid backbone with CASI promoter, and the AAV plasmid was packaged into AAV9 capsid, generating vector AAV9.hPTH-12G6 (Signagen)
Animal study: C57BL/6 mice were injected intramuscularly with AAV9.hPTH-12G6 at 2.5×10^11 viral genome (VG) per mouse of the AAV9 viral particle into both quadriceps. Compound 004 was formulated in 0.5% methylcellulose (MC): 0.25% Tween® 80 in deionized (DI) water for oral administration. 30 days after AAV vector delivery, mice were treated orally via oral gavage with 0 mg/kg, 30 mg/kg, 100 mg/kg or 300 mg/kg Comp. 004 for 3 days.

N5-12G6 riboswitch = experiment: Firefly luciferase assay, N5-12G6 riboswitch in HEK293 cells; settings: N5-12G6, 0.1 μM Comp. 004
Description: as §4
Firefly luciferase assay of cultured cells: Twenty-four hours after media change, plates were removed from the incubator, and equilibrated to RT for several minutes on a lab bench, then aspirated. Glo-lysis buffer (Promega, 100 μL, RT) was added, and the plates allowed to remain at RT for at least 5 minutes. Then, the well contents were mixed by 50 μL trituration, and 20 μL of each sample was mixed with 20 μL of bright-glo reagent (Promega) that had been diluted to 10% in glo-lysis buffer. 96 wells were spaced on an opaque white 384-well plate. Following a 5 min incubation at RT, luminescence was measured using a Tecan machine with 500 ms read time. The luciferase activity was expressed as mean arbitrary light units (ALU)±S.D., and fold induction was calculated as the quotient of the luciferase activity obtained from cells with TPP or analog compound treatment divided by the luciferase activity obtained from cells without TPP or analog compound treatment.

c1cc(N2CCNCC2)c(NCc2ccc3nccnc3c2)cn1 [Comp. 004]
fold increase in luciferase expression (12C6-1 riboswitch): 360 fold
fold increase in luciferase expression [1]: 26 fold
increase in luciferase expression [2]: 4.1
fold increase in luciferase expression (N4-1C11 riboswitch): 16 fold
fold increase in luciferase expression (N5-12E5 riboswitch): 8 fold
fold induction of mEpo expression [3]: about 148 fold
fold induction of mEpo expression [4]: ~71 fold
mEpo expression [5]: induced upon treatment of Comp. 004 in a dose dependent manner
fold of the hGH expression from cells without compound treatment [6]: approximately 243 fold
hGH expressed [6]: 202 ng/mL
serum vector-expressed mEpo [7]: elevated
hematocrit ([8]; AAV 1×10^10 vg per mouse): restored to normal level
hematocrit ([8]; AAV 2.5×10^10 vg per mouse): exceeded the normal hematocrit level
hematocrit of anemic mice ([8]; after 20 oral doses, biggest increase in the 100 mg/kg dose group): increased
hPTH expression [9]: dose dependent manner
production of hPTH in mice [10]: induced dose-dependent production of hPTH
serum calcium concentration [10]: increase in the serum calcium concentration
fold increase in luciferase expression (N5-12G6 riboswitch): 36 fold
